Measured values: patent publication EP0270317A2, “Pharmaceutical compositions for the treatment of diseases caused by viruses” (Kabushiki Kaisha Ueno Seiyaku Oyo Kenkyujo, priority 1986, dated 1988)

Tested on: HTLV-III
Experiment: inhibition of viral infection, MT-4 cells infected with HTLV-III, time course (Example 18)
Assay type: cell-based
Details: sole use of 10 nM AZT or 5 µg/ml dextran sulfate; day 9
Protocol: AIDS virus HTLV-III was challenged to established human T-lymphocyte culture cells MT-4 and the cell suspension and virus particles were incubated at 37°C for 1 hour. The cells were then washed with phosphate buffered saline once and cultured with or without various doses of the test substances in RPMI-1640 medium at 37°C under 5 % CO₂ in an incubator.
MT-4 cells infected with HTLV-III were destructed as the virus proliferated, resulting in decrease of viable cells. Prior to the cytolysis by viral cytopathic effect, the cells infected with HTLV-III which were detectable by indirct immuno fluorescence method appeared. On day 12, number of the living cells was counted to know the extent of infection, and rate of the infected cells was determined by indirect immuno-fluorescence method using an antibody having specificity to the virus specific antigen. As the test substances, 3ʹ-azido-3ʹ-deoxythymidine (AZT) and dextran sulfate(M.W. 7000 - 8000, S-content 17 - 20%) (DS) were used.
In the same procedure as in Expample 7, the MT-4 cells infected with HTLV-III were cultured in medium and the changes in the number of viable cells and the rate of the infected cells were recorded in time course. […]

Cc1cn([C@H]2C[C@H](N=[N+]=[N-])[C@@H](CO)O2)c(=O)[nH]c1=O [AZT, 3ʹ-azido-3ʹ-deoxythymidine]
infection: 100%
